Assay results taken from patent publication US11078192B2, “Aromatic acetylene or aromatic ethylene compound, intermediate, preparation method, pharmaceutical composition and use thereof” (GUANGZHOU MAXINOVEL PHARMACEUTICALS CO., LTD., priority 2016, dated 2021).

Target: PD-1/PD-L1 (Homo sapiens (Human), UniProt Q9NZQ7)
Assay: Homogeneous Time-Resolved Fluorescence (HTRF) binding assay
Settings: CisBio kit #64CUS000C-1, read-out: IC50 of compounds binding to PD-1/PD-L1
Description: Homogeneous Time-Resolved Fluorescence (HTRF) binding assay was used to determine the binding activity of the compound of the present invention to PD-1/PD-L1.
The purchased kit (CisBio, #64CUS000C-1) contained reagents required for assays such as PD-1, PD-L1, anti-tag1-Eu, Anti-tag2-XL665, Dilute Buffer, and Detection Buffer.
1. The compound was formulated to 10 concentrations with a 3-fold gradient with 100% DMSO.
2. The solution of the compound in DMSO was added to Dilute Buffer, mixed thoroughly, then transferred to a 96-well plate.
3. PD-L1 was diluted with Dilute Buffer, then added to the above 96-well plate.
4. PD-1 was diluted with Dilute Buffer and added to the above 96-well plate, which was then incubated at room temperature for 30 minutes.
5. A portion of anti-tag1-Eu and a portion of anti-tag2-XL665 were added to Detection Buffer, mixed thoroughly and transferred to the above 96-well plate.
6. The mixture in the above 96-well plate was incubated at room temperature for 1 to 24 hours.
7. HTRF values were read with Envision.

Chain of PD-1/PD-L1 (Q9NZQ7 19-238): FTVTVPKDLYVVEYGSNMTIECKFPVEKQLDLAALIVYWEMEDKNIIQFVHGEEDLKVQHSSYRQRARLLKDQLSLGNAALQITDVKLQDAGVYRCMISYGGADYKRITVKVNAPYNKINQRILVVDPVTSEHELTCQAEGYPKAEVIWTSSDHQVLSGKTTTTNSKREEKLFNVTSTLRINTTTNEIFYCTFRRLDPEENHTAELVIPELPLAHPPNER

Row | IC50 [nM] | Compound
1 | 550 | Cc1cc(CN2CCCC(O)C2CO)ccc1/C=C/c1cccc(-c2ccccc2)c1C (stereo not drawn) [Compound 22, (E)-2-Hydroxymethyl-1-(3-methyl-4-(2-(2-methylbiphenyl-3-yl)vinyl)benzyl)piperidin-3-ol]
2 | 130 | COc1cc(/C=C/c2cccc(-c3ccccc3)c2C)cc(OC)c1CNC(CCO)C(=O)O (stereo not drawn) [Compound 43, (E)-2-(2,6-Dimethoxy-4-(2-(2-methylbiphenyl-3-yl)vinyl)benzylamino)-4-hydroxybutanoic Acid]
3 | > 10000 | COc1cc(/C=C/c2cccc(-c3ccccc3)c2C)cc(OC)c1CNc1ccc(O)c(C(=O)O)c1 [Compound 59, (E)-5-(2,6-Dimethoxy-4-(2-(2-methylbiphenyl-3-yl)vinyl)benzylamino)-2-hydroxybenzoic Acid]
4 | 150 | COc1cc(/C=C/c2cccc(-c3ccccc3)c2C)cc(OC)c1CNCCNC(C)=O [Compound 6, (E)-N-(2-((2,6-Dimethoxy-4-(2-(2-methylbiphenyl-3-yl)vinyl)benzyl)amino)ethyl)acetamide]
5 | 36 | Cc1cc(CNC(CO)C(=O)O)cnc1/C=C/c1cccc(-c2ccc3c(c2)OCCO3)c1C (stereo not drawn) [Compound 69, (E)-2-((6-(3-(2,3-Dihydrobenzo[b][1,4]dioxin-6-yl)-2-methylstyryl)-5-methylpyridin-3-yl)methylamino)-3-hydroxypropanoic Acid]
6 | 1340 | COc1cc(C#Cc2cccc(-c3ccccc3)c2C)cc(OC)c1CN1CCC[C@H]1CO [Compound 2, (S)-(1-(2,6-Dimethoxy-4-((2-methyl-biphenyl-3-yl)ethynyl)benzyl)pyrrolidin-2-yl)methanol]
7 | > 10000 | COc1cc(N2C=CCN2c2cccc(-c3ccccc3)c2C)cc(OC)c1CNC(CO)C(=O)O (stereo not drawn) [Compound 60, 2-(2,6-Dimethoxy-4-(2-(2-methylbiphenyl-3-yl)-1H-pyrazol-1-yl)benzylamino)-3-hydroxypropanoic Acid]
8 | 815 | COC(=O)c1cccc(-c2cccc(/C=C/c3cc(OC)c(CNC(C)(CO)C(=O)O)c(OC)c3)c2C)c1 (stereo not drawn) [Compound 51, (E)-2-(2,6-Dimethoxy-4-(2-(3′-methoxycarbonyl-2-methylbiphenyl-3-yl)vinyl)benzylamino)-3-hydroxy-2-methylpropionic Acid]
9 | 7980 | COc1ccc(-c2cccc(/C=C/c3cc(OC)c(CNC(C)(CO)C(=O)O)c(OC)c3)c2C)cc1 (stereo not drawn) [Compound 50, (E)-2-(2,6-Dimethoxy-4-(2-(4′-methoxy-2-methylbiphenyl-3-yl)vinyl)benzylamino)-3-hydroxy-2-methylpropionic Acid]
10 | 460 | Cc1c(/C=C/c2ccc(CN3CCC[C@H]3CO)cc2Cl)cccc1-c1ccccc1 [Compound 11, (S,E)-(1-(3-Chloro-4-(2-(2-methylbiphenyl-3-yl)vinyl)benzyl)pyrrolidin-2-yl)methanol]
11 | 1300 | Cc1cc(CN2CCC[C@H](O)[C@@H]2C(N)=O)ccc1/C=C/c1cccc(-c2ccccc2)c1C [Compound 26, (2R,3S,E)-3-Hydroxy-1-(3-methyl-4-(2-(2-methylbiphenyl-3-yl)vinyl)benzyl)piperidin-2-carboxamide]
12 | 920 | Cc1cc(CN2CCC[C@@H](O)[C@@H]2C(N)=O)ccc1/C=C/c1cccc(-c2ccccc2)c1C [Compound 27, (2R,3R,E)-3-Hydroxy-1-(3-methyl-4-(2-(2-methylbiphenyl-3-yl)vinyl)benzyl)piperidin-2-carboxamide]
13 | 5090 | COc1nc(/C=C/c2cccc(-c3ccccc3)c2C)ccc1CN[C@H](CO)C(=O)O [Compound 41, (R,E)-3-Hydroxy-2-((2-methoxy-6-(2-(2-methylbiphenyl-3-yl)vinyl)pyridin-3-yl)methylamino)propanoic Acid]
14 | 460 | COc1cc(/C=C/c2cccc(-c3ccccc3)c2C)cc(OC)c1CN1CCCC(O)C1C(=O)O (stereo not drawn) [Compound 30, (E)-1-(2,6-Dimethoxy-4-(2-(2-methylbiphenyl-3-yl)vinyl)benzyl)-3-hydroxy piperidin-2-carboxylic Acid]
15 | 690 | Cc1c(/C=C/c2ccc(CN3CCCC(O)C3CO)cc2Cl)cccc1-c1ccccc1 (stereo not drawn) [Compound 23, (E)-2-Hydroxymethyl-1-(3-chloro-4-(2-(2-methylbiphenyl-3-yl)vinyl)benzyl) piperidin-3-ol]
16 | 49 | COc1cc(/C=C/c2cccc(-c3ccccc3)c2C)cc(OC)c1CN[C@@](C)(CO)C(=O)O [Compound 45, (S,E)-2-(2,6-Dimethoxy-4-(2-(2-methylbiphenyl-3-yl)vinyl)benzylamino)-3-hydroxy-2-methylpropanoic Acid]
17 | 240 | Cc1cc(CN[C@H](C)C(=O)O)ccc1/C=C/c1cccc(-c2ccccc2)c1C [Compound 13, (R,E)-2-(3-Methyl-4-(2-(2-methylbiphenyl-3-yl)vinyl)benzylamino)propanoic Acid]
18 | 280 | COc1cc(/C=C/c2cccc(-c3ccccc3)c2C)cc(OC)c1CNCCO [Compound 4, (E)-2-((2,6-Dimethoxy-4-(2-(2-methylbiphenyl-3-yl)vinyl)benzyl)amino)ethan-1-ol]
19 | 330 | Cc1cc(CN2CCCC(O)C2C(=O)O)ccc1/C=C/c1cccc(-c2ccccc2)c1C (stereo not drawn) [Compound 19, (E)-3-Hydroxy-1-(3-methyl-4-(2-(2-methylbiphenyl-3-yl)vinyl)benzyl)piperidin-2-carboxylic Acid]
20 | 230 | Cc1cc(CN[C@H](CO)C(=O)O)ccc1/C=C/c1cccc(-c2ccccc2)c1C [Compound 38, (R,E)-2-(3-Methyl-4-(2-(2-methylbiphenyl-3-yl)vinyl)benzylamino)-3-hydroxypropionic Acid]
21 | 310 | Cc1c(/C=C/c2ccc(CNCCO)cn2)cccc1-c1ccc2c(c1)OCCO2 [Compound 17, (E)-2-((6-(3-(2,3-Dihydrobenzo[b][1,4]dioxin-6-yl)-2-methylstyryl)pyridin-3-yl)methylamino)ethanol]
22 | 70 | COc1cc(/C=C/c2cccc(-c3ccc4c(c3)OCCO4)c2C)cc(OC)c1CNC(C)(CO)C(=O)O (stereo not drawn) [Compound 57, (E)-2-(4-(3-(2,3-Dihydrobenzo[b][1,4]dioxin-6-yl)-2-methylstyryl)-2,6-dimethoxybenzylamino)-3-hydroxy-2-methylpropanoic Acid]
23 | 90 | COc1nc(/C=C/c2cccc(-c3ccccc3)c2C)ccc1CNC(CO)CO [Compound 40]
24 | 4200 | COc1cc(/C=C/c2cncc(-c3ccc4c(c3)OCCO4)c2C)cc(OC)c1CN[C@@H](CO)C(=O)O [Compound 64, (S,E)-2-(4-(2-(5-(2,3-Dihydrobenzo[b][1,4]dioxin-6-yl)-4-methylpyridin-3-yl)vinyl)-2,6-dimethoxybenzylamino)-3-hydroxypropanoic Acid]
25 | > 10000 | COC(=O)c1ccc(-c2cccc(/C=C/c3cc(OC)c(CNC(C)(CO)C(=O)O)c(OC)c3)c2C)cc1 (stereo not drawn) [Compound 49, (E)-2-(2,6-Dimethoxy-4-(2-(4′-(methoxycarbonyl)-2-methylbiphenyl-3-yl)vinyl)benzylamino)-3-hydroxy-2-methylpropanoic Acid]
26 | 480 | (S,E)-2-(3-Chloro-4-(2-(2-methylbiphenyl-3-yl)vinyl)benzylamino)-3-hydroxypropanamide [Compound 33]

Row | Compound | IC50 [nM]
27 | (R,E)-2-(3-Chloro-4-(2-(2-methylbiphenyl-3-yl)vinyl)benzylamino)-3-hydroxypropionamide [Compound 34] | 340
